Measurements taken from US10053434B2, “Histone deacetylase inhibitors and compositions and methods of use thereof” (CHDI Foundation, Inc., priority 2015, dated 2018).

Key:
[1] = test system: Cellular Class IIa HDAC activity; test: Inhibition of cellular Class IIa HDAC activity; Cell (Lys-TFA) substrate, Jurkat E6-1 cells; type: cell-based; details: Boc-Lys(TFA)-AMC substrate
Description: Example 29: Analysis of Inhibition of Cellular Class IIa HDAC Activity with Class IIa Histone Deacetylase (HDAC) Inhibitors; Cell (Lys-TFA) Substrate
(§1) The potency of Class IIa Histone Deacetylase (HDAC) inhibitors was quantified by measuring the cellular histone deacetylase enzymatic activity using the fluorogenic substrate, Boc-Lys(TFA)-AMC. After penetration in Jurkat E6-1 cells, the substrate was deacetylated to Boc-Lys-AMC. After cell lysis and cleavage by trypsin, the fluorophore AMC was released from the deacetylated substrate only. The fluorescence of the sample was directly related to the histone deacetylase activity in the sample.
Jurkat E6.1 Cell Culture and Plating.
(§2) Jurkat E6.1 cells were cultured according to standard cell culture protocols in Jurkat E6.1 Growth Media (RPMI without phenol red, 10% FBS, 10 mM HEPES, and 1 mM Sodium Pyruvate). Jurkat E6.1 cells were counted using a Coulter Counter and resuspended in Jurkat E6.1 growth media at a concentration of 75,000 cells/35 μL. 35 μL or 75,000 cells was seeded into Greiner microtitre assay plates. The plates were then incubated at 37° C. and 5% CO2 while other assay components were being prepared.
(§3) Serially Dilute HDAC Inhibitor Compounds.
(§4) Serial dilutions of the HDAC inhibitors and control reference compound (1-(5-(3-((4-(1,3,4-oxadiazol-2-yl)phenoxy)methyl)-1,2,4-oxadiazol-5-yl)thiophen-2-yl)-2,2,2-trifluoroethanone) were made by first resuspending the lyophilized compound to a final concentration of 10 mM in 100% DMSO. Stocks of 70 μL aliquots of the 10 mM compound in DMSO were prepared and stored at −20° C. From one stock aliquot of each tested compound and the reference compound, a 16-point serial dilution was prepared according to Table 1 using a 125 μL 16-channel Matrix multi-channel pipette.
(§5) 2 μL (200×) of each diluted solution and each control (full activity: 100% DMSO alone or full inhibition 1 mM) was stamped into V-bottom polypropylene 384-well compound plates using either the Bravo, Janus, or 12.5 μL 16-channel Matrix multi-channel pipette. Each well with the 200× compound solution was diluted 1:20 by the addition of 38 μL Jurkat assay buffer+DMSO (9.5% DMSO, RPMI without phenol red, 0.09% FBS, 9 mM Hepes, and 0.9 mM Sodium Pyruvate equilibrated to r.t.)
Prepare 5× (500 μM) Boc-Lys(TFA)-AMC Substrate.
(§6) 5× (500 μM) substrate was prepared just prior to the addition to the assay. The 5× substrate was prepared by diluting a 100 mM Boc-Lys(TFA)-AMC in DMSO solution 1:200 by adding it drop-wise to Jurkat assay medium (RPMI without phenol red, 0.1% FBS, 10 mM Hepes, and 1 mM Sodium Pyruvate equilibrated to 37° C.) while vortexing at slow speed to prevent precipitation.
(§7) 10 mL of 3× lysis buffer was prepared with 8.8 mL of 3× stock lysis buffer (50 mM Tris-HCl, pH 8.0, 137 mM NaCl, 2.7 mM KCl, 1 mM MgCl2, 1% Nonidet P40 Substitute equilibrated to r.t.) and 1.2 mL of 3 mg/mL Trypsin equilibrated to r.t.
(§8) 5 μL of each solution of 1:20 diluted compound from above was transferred to the Greiner microtitre assay plates with 75,000 cells/well using the Bravo. Cells were then incubated for 2 hours at 37° C. and 5% CO2. The assay was then started by adding 10 μL of 5× (500 μM) substrate to the assay plate using either the Bravo or 16-channel Matrix multi-channel pipette. The cells were then incubated for 3 hours at 37° C. and 5% CO2. Next, 25 μL of 3× lysis buffer was added to each well using either the 125 μL 16 channel pipette or the Bravo. The assay plate was then incubated overnight (15-16 hours) at 37° C. and 5% CO2. The following day, the plates were shaken on an orbital shaker for 1 minute at 900 rpm. Finally the top read fluorescence (Excitation: 355 nm, Emission: 460 nm) was measured using PerkinElmer EnVision.

[2] = biological target: human catalytic domain HDAC4 protein (amino acids 648-1032) (Homo sapiens (Human), UniProt P56524); test: HDAC4 catalytic domain enzymatic activity, fluorogenic substrate Boc-Lys(TFA)-AMC; details: read-out: HDAC4 Biochemical IC50
Sequence of human catalytic domain HDAC4 protein (amino acids 648-1032) (P56524 648-1032): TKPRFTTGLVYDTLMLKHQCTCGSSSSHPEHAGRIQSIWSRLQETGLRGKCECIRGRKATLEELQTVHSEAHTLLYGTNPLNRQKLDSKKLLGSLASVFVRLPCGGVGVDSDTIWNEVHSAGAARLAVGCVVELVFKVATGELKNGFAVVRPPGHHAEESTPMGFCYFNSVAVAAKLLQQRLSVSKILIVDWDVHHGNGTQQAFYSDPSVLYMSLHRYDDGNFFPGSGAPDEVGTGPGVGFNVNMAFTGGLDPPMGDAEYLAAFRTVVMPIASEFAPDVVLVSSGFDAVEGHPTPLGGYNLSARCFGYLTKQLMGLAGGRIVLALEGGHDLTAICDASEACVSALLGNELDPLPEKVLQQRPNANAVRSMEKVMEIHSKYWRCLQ
Description: Example 25: Analysis of Inhibition of HDAC4 with Class IIa Histone Deacetylase (HDAC) Inhibitors
The potency of Class IIa Histone Deacetylase (HDAC) inhibitors was quantified by measuring the Histone Deacetylase 4 (HDAC4) catalytic domain enzymatic activity using the fluorogenic substrate, Boc-Lys(TFA)-AMC. The substrate was deacetylated to Boc-Lys-AMC by HDAC4. […] The fluorescence of the sample was directly related to the histone deacetylase activity in the sample.
as §3
as §4, with “dimethyl sulfoxide (DMSO).” for “DMSO.”, “60” for “70”, “pipette (Matrix Technologies Ltd).” for “pipette.”
2 μL (200×) of each diluted solution and each control (full activity: 100% DMSO alone or full inhibition 1 mM) was stamped into V-bottomed polypropylene 384-well compound plates using either the Bravo (384-well head from Agilent) or 12.5 μL 16-channel Matrix multi-channel pipette (Matrix Technologies Ltd). Each well with the 200× compound solution was diluted 1:20 by the addition of 38 μL assay buffer+DMSO (10.5% DMSO, 45 mM Tris-HCl, 123 mM NaCl, 2.4 mM KCl, and 0.9 mM MgCl2 at pH 8.0 and equilibrated to r.t.).
Prepare HDAC4 Catalytic Domain Enzyme (0.2 μg/mL).
The HDAC4 catalytic domain enzyme was human catalytic domain HDAC4 protein (amino acids 648-1032) with a C-terminal 6× histidine tag, produced by BioFocus. A working solution of enzyme was prepared from a […] stock aliquot of HDAC4 catalytic domain (thawed on ice) diluted to 0.2 μg/mL with assay buffer (50 mM Tris-HCl, 137 mM NaCl, 2.7 mM KCl, and 1 mM MgCl2 at pH 8 and equilibrated to r.t.) just prior to the addition of the enzyme to the assay.
Prepare 5× (50 μM) Boc-Lys(TFA)-AMC Substrate.
5× (50 μM) substrate was prepared just prior to the addition to the assay. A 1 mM substrate stock was made by diluting a 100 mM Boc-Lys(TFA)-AMC in DMSO solution 1:100 by adding it drop-wise to assay buffer (equilibrated to r.t.) while vortexing at slow speed to prevent precipitation. The 5× substrate was prepared by diluting the 1 mM substrate solution 1:20 by adding it drop-wise to assay buffer (equilibrated to r.t.) while vortexing at slow speed to prevent precipitation.
Prepare 3× (30 μM) Developer/Stop Solution.
3× (30 μM) Developer/Stop Solution was prepared just prior to addition to the plate by diluting a stock solution of 10 mM reference compound 1:333 in 25 mg/mL trypsin (PAA Laboratories Ltd.) equilibrated to r.t.
5 μL of each solution of 1:20 diluted compound from above was transferred to a clear bottomed, black, 384-well assay plate using the Bravo or the Janus (384-well MDT head from Perkin Elmer). Using a 16-channel Matrix multi-channel pipette, 35 μL of the working solution of HDAC4 catalytic domain enzyme (0.2 μg/mL in assay buffer) was transferred to the assay plate. The assay was then started by adding 10 μL of 5× (50 μM) substrate to the assay plates using either the Bravo, Janus or 16-channel Matrix multi-channel pipette. The assay plate was then shaken for two minutes on an orbital shaker at 900 rpm (rotations per minute). Next the plate was incubated for 15 minutes at 37° C. The reaction was stopped by adding 25 μL of 3× (30 μM) developer/stop solution to the assay plates using either the Bravo, Janus or a 16-channel Matrix multi-channel pipette. Assay plates were then shaken for 5 minutes on an orbital shaker at 1200 rpm. Next, the assay plates were incubated at 37° C. for 1 hour in a tissue culture incubator. […]

[3] = test system: Cellular Class I HDAC activity; test: Inhibition of cellular Class I HDAC activity; Cell (Lys-Ac) substrate, Jurkat E6-1 cells; type: cell-based; details: Boc-Lys(Ac)-AMC substrate
Description: as §1, §2, §4, §5, §6, §7, §8
Example 30: Analysis of Inhibition of Cellular Class I HDAC Activity with Class IIa Histone Deacetylase (HDAC) Inhibitors; Cell (Lys-Ac) Substrate
The Class I HDAC activity of Class IIa Histone Deacetylase (HDAC) inhibitors was quantified by measuring the cellular histone deacetylase enzymatic activity using the fluorogenic substrate, Boc-Lys(Ac)-AMC. This was performed according to the procedure in Example 29, using Boc-Lys(Ac)-AMC substrate in place of Boc-Lys(TFA)-AMC.

Row | Compound | IC50 [1] | IC50 [2] | IC50 [3]
1 | C[C@H](CN1CC2CCCC21)NC(=O)c1ccc(-c2noc(C(F)(F)F)n2)cc1 (single isomer, unassigned) [Example 20] | 150 nM | 22 nM | 7800 nM
2 | C[C@H](CN1CCC[C@@H]1C)NC(=O)c1ccc(-c2noc(C(F)(F)F)n2)cn1 [Example 24, N—((R)-1-((S)-2-Methylpyrrolidin-1-yl)propan-2-yl)-5-(5-(trifluoromethyl)-1,2,4-oxadiazol-3-yl)picolinamide] | 1030 nM | 134 nM | 33700 nM
3 | O=C(NCCN1CC2CCC(C2)C1)c1ccc(-c2noc(C(F)(F)F)n2)cc1 [Example 2, N-(2-(3-Azabicyclo[3.2.1]octan-3-yl)ethyl)-4-(5-(trifluoromethyl)-1,2,4-oxadiazol-3-yl)benzamide] | 330 nM | 140 nM | 4900 nM
4 | C[C@H](CN1Cc2ccccc2C1)NC(=O)c1ccc(-c2noc(C(F)(F)F)n2)cc1 [Example 3, (R)—N-(1-(Isoindolin-2-yl)propan-2-yl)-4-(5-(trifluoromethyl)-1,2,4-oxadiazol-3-yl)benzamide] | 140 nM | 39 nM | 4900 nM
5 | O=C(N[C@H](CN1CCCC1)C1CC1)c1ccc(-c2noc(C(F)(F)F)n2)cc1 [Example 5, (S)—N-(1-Cyclopropyl-2-(pyrrolidin-1-yl)ethyl)-4-(5-(trifluoromethyl)-1,2,4-oxadiazol-3-yl)benzamide] | 710 nM | 48 nM | 25700 nM
6 | O=C(N[C@@H](CN1CCCC1)C1CC1)c1ccc(-c2noc(C(F)(F)F)n2)cc1 [Example 6, (R)—N-(1-Cyclopropyl-2-(pyrrolidin-1-yl)ethyl)-4-(5-(trifluoromethyl)-1,2,4-oxadiazol-3-yl)benzamide] | 750 nM | 77 nM | > 50000 nM

Now those with a lower IC50 [1], led by results:

Row | IC50 [1] | IC50 [2] | IC50 [3] | Compound
7 | 69 nM | 8 nM | 5100 nM | C[C@H](CN1CCC2(CC2)C1)NC(=O)c1ccc(-c2noc(C(F)(F)F)n2)cc1 [Example 15, (R)—N-(1-(5-Azaspiro[2.4]heptan-5-yl)propan-2-yl)-4-(5-(trifluoromethyl)-1,2,4-oxadiazol-3-yl)benzamide]
8 | 58 nM | 30 nM | 4000 nM | C[C@H](CN1CCC2(CC1)CC2)NC(=O)c1ccc(-c2noc(C(F)(F)F)n2)cc1 [Example 12, (R)—N-(1-(6-Azaspiro[2.5]octan-6-yl)propan-2-yl)-4-(5-(trifluoromethyl)-1,2,4-oxadiazol-3-yl)benzamide]
9 | 57 nM | 21 nM | 3700 nM | C[C@H](CN1CCCC(OC(F)F)C1)NC(=O)c1ccc(-c2noc(C(F)(F)F)n2)cc1 (single isomer, unassigned) [Example 9]
10 | 51 nM | 8 nM | 6900 nM | C[C@H](CN1CC2CC2C1)NC(=O)c1ccc(-c2noc(C(F)(F)F)n2)cc1 (stereo partly drawn) [Example 4, N-((2R)-1-(3-Azabicyclo[3.1.0]hexan-3-yl)propan-2-yl)-4-(5-(trifluoromethyl)-1,2,4-oxadiazol-3-yl)benzamide]
11 | 16 nM | 4 nM | 3100 nM | C[C@H](CN1CC2CCCC21)NC(=O)c1ccc(-c2noc(C(F)(F)F)n2)cc1 (single isomer, unassigned) [Example 21]
12 | 12 nM | 7 nM | 890 nM | C[C@H](CN1CC2CCC(C2)C1)NC(=O)c1ccc(-c2noc(C(F)(F)F)n2)cc1 [Example 16, N-((2R)-1-(3-Azabicyclo[3.2.1]octan-3-yl)propan-2-yl)-4-(5-(trifluoromethyl)-1,2,4-oxadiazol-3-yl)benzamide]
13 | 9 nM | 4 nM | 1100 nM | C[C@H](CN1CC2CCC2C1)NC(=O)c1ccc(-c2noc(C(F)(F)F)n2)cc1 (stereo partly drawn) [Example 19, N-((2R)-1-(3-Azabicyclo[3.2.0]heptan-3-yl)propan-2-yl)-4-(5-(trifluoromethyl)-1,2,4-oxadiazol-3-yl)benzamide]
